# How the values were obtained:
# [1] = system: A/Duck/HK/313/4/78 (H5N3); assay type: cell-based, Influenza A virus (Avian strain); conditions: read-out: HI activity IC50
# A/Aichi/2/68 (H3N2) = assay type: cell-based, Influenza A virus (Human strain); conditions: for IC50: read-out: HI activity IC50
Substance,IC50 [1] [µM],IC50 (A/Aichi/2/68 (H3N2)) [µM],inhibition activity of human influenza virus infection compared with conventional O-linked sialo-glycan-containing polymer (A/Aichi/2/68 (H3N2)),inhibition activity of human influenza virus infection compared with Poly[Neu5Ac α2-6-LacNAc β-N-(ε-aminocaproyl/γ-PGA] (A/Aichi/2/68 (H3N2))
Poly[Neu5Ac α2-3-N-acetyllactosaminylamine β-N-(ε-aminocaproyl)/γ-PGA],0.0375,0.0375,,
Poly[Neu5Ac α2-6lactosylamine β-N-(ε-aminocaproyl)/γ-PGA],> 0.2,0.0047,,
Poly[Neu5Ac α2-3lacto-N-neotetraosylamine β-N-(ε-aminocaproyl)/γ-PGA],0.0375,0.0188,,
Poly[N-(ε-aminocaproyl)-β-lactosylamine/-γ-PGA]],> 0.2,> 0.2,,
Poly[Neu5Ac α2-3lactosylamine β-N-(ε-aminocaproyl)/γ-PGA],0.0375,0.0375,,
Poly[Neu5Ac α2-6-N-acetyllactosaminylamine β-N-(ε-aminocaproyl)/γ-PGA],> 0.2,0.0012,many times greater,
Poly[Neu5Ac α2-6-lacto-N-neotetraosylamine β-N-(ε-aminocaproyl)/γ-PGA],> 0.2,0.00029,,many more times greater
Poly[N-(ε-aminocaproyl)-β-N-acetyllactosaminylamine/-γ-PGA]],> 0.2,> 0.2,,
Poly[N-(ε-aminocaproyl)-β-lacto-N-neotetraosylamine/-γ-PGA]],> 0.2,> 0.2,,

# — US8450441B2, “Synthetic N-linked sialo-glycan-containing polymer and method for producing the same” (priority 2007, dated 2013)
